The record followed here is ChEMBL document CHEMBL1201862, “PubChem BioAssay data set” (2004).

Assay [1] deals with Glyceraldehyde-3-phosphate dehydrogenase (Homo sapiens, UniProt P04406).
Assay [2] deals with T1, Alkaline phosphatase, tissue-nonspecific isozyme (Homo sapiens, UniProt P05186).
T1 sequence (P05186 whole entry): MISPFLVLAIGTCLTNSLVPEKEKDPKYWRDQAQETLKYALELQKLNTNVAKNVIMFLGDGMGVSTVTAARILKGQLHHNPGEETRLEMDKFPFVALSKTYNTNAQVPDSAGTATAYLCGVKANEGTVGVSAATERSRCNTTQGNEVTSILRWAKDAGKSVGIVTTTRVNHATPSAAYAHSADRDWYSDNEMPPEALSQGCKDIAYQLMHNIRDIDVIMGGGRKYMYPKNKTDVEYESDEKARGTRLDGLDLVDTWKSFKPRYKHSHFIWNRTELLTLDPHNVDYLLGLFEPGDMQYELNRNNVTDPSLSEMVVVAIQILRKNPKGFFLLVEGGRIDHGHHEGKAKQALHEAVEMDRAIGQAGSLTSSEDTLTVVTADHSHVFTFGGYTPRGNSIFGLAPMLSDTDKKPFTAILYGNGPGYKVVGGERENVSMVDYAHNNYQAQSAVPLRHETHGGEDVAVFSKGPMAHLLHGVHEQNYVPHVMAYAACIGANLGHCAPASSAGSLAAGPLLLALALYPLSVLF
Put plainly: human TNAP enzyme inhibitors, SAR follow-up, biochemical, luminescent, dose response (AID 1056).

The target of assay [3] is Peroxisome proliferator-activated receptor gamma/Nuclear receptor coactivator 1 (Homo sapiens, UniProt P37231). Description: TR-FRET dose response biochemical High Throughput Screening assay for agonists of the steroid receptor coactivator 1 (SRC-1) recruitment by the peroxisome proliferator-activated receptor gamma (PPAR gamma): non-selective agonists. [Related pubchem assays (depositor defined):AID1300, AID1808, AID504735, AID631]. Format: protein assay.

In assay [4] the target is Peroxisome proliferator-activated receptor gamma/Nuclear receptor coactivator 3 (Homo sapiens, UniProt P37231). Put plainly: TR-FRET dose response biochemical High Throughput Screening assay for agonists of the steroid receptor coactivator 3 (SRC-3) recruitment by the peroxisome proliferator-activated receptor gamma (PPAR gamma): non-selective agonists. [Related pubchem assays: 1301 (Confirmation screen.), 1048 (Primary screen.)]. It counts as functional.

In assay [5] the target is Peroxisome proliferator-activated receptor gamma/Nuclear receptor coactivator 2 (Homo sapiens, UniProt P37231). Put plainly: TR-FRET dose response biochemical High Throughput Screening assay for agonists of the steroid receptor coactivator 2 (SRC-2) recruitment by the peroxisome proliferator-activated receptor gamma (PPAR gamma): non-selective agonists. [Related pubchem assays: 1297, 1032 ]. It counts as functional.

The target in assay [6] is DNA dC->dU-editing enzyme APOBEC-3A (Homo sapiens, UniProt P31941). Put plainly: APOBEC3A DNA deaminase inhibitors, dose response, biochemical (AID 504722). Format: functional.
Assay [7] has as its target DNA dC->dU-editing enzyme APOBEC-3G (Homo sapiens, UniProt Q9HC16). Description: Dose Response confirmation of small molecule APOBEC3G DNA Deaminase Inhibitors via a fluorescence-based single-stranded DNA deaminase assay. [Related pubchem assays (depositor defined):AID493012, AID493028]. Format: functional.
In assay [8] the target is T2, Polyadenylate-binding protein 1 (Homo sapiens, UniProt P11940). Put plainly: PABP1 MLLE–PAM2 interaction inhibitors, dose response, miRNA deadenylation inhibitor project, biochemical, fluorescence polarization, Cy5-PAM2 peptide, secondary (AID 602260). Format: functional. The conditions noted are these: read-out: IC50_Mean.
The target in assay [9] is T2, Polyadenylate-binding protein 1. Put plainly: PABP1 MLLE–PAM2 binding inhibitor potency, dose response, biochemical, fluorescence polarization, FITC-PAM2 peptide (AID 602259). It counts as functional. The conditions noted are these: read-out: IC50_Mean.
In assay [10] the target is T3, Kappa-type opioid receptor (Homo sapiens, UniProt P41145). Format: functional.
Assay [11] deals with Beta-galactosidase (Escherichia coli, UniProt Q8VNN2). Format: functional.
The target of assay [12] is T3, Kappa-type opioid receptor. Format: functional. This is another data set of the same source.
In assay [13] the test system is H9c2. Description: cells. Format: functional, cell-based. The conditions noted are these: Rattus norvegicus, H9c2, Myocardium.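 Also: confirmatory concentration-response retest of ultra-high-throughput screening hits for modulation of myocardial damage; cell death induced by hydrogen peroxide oxidative stress; compound pretreatment for 60 min then peroxide exposure for 2 h; potency is for protecting the cells against peroxide damage rather than for killing them.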
A short description of assay [14]: Shn3 3'UTR reporter inhibitors, dose response, cell-based, Clone20 osteoblasts, firefly luciferase, cherry-picked (AID 624132).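 Also: firefly luciferase luminescence from reporter carrying the Shn3 3'UTR in osteoblasts.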 Format: functional.
Assay [15] can be described thus: HepG2 cell cytotoxicity, dose response, cytotoxicity control for Shn3 inhibitor project, CellTiter-Glo, cherry-picked (AID 624134). It counts as functional, cell-based.
Assay [16] is described as follows: control 3'UTR Renilla luciferase suppression, dose response, counter-screen for Shn3 inhibitor project, cell-based, Clone20-Shn3RL, cherry-picked (AID 624133). Format: functional.
Assay [17] is described as follows: CEM21 lymphoblast cell cytotoxicity, dose response, cytotoxicity control for viral fusion inhibitor project, CellTiter-Glo luminescence, cherry-picked (AID 652042).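 Also: potency for signal decrease meaning cytotoxicity.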 Format: functional, cell-based.
Assay [18] can be described thus: inhibitors of clade B AD8 Env fusion, dose response, cell-based, cherry-pick (AID 652062).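 Also: luciferase signal from cell-cell fusion driven by HIV-1 clade B AD8 Env; potency is for inhibitors of fusion seen as a drop in luminescence.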 It counts as functional.
Assay [19] addresses DNA (cytosine-5)-methyltransferase 1 (Homo sapiens, UniProt P26358). Put plainly: DNMT1 methyltransferase inhibitors, confirmation, biochemical, fluorescent molecular beacon (AID 602386). It counts as functional.
Assay [20] addresses T4, Ubiquitin-conjugating enzyme E2 N (Homo sapiens, UniProt P61088).
T4 sequence (P61088 whole entry): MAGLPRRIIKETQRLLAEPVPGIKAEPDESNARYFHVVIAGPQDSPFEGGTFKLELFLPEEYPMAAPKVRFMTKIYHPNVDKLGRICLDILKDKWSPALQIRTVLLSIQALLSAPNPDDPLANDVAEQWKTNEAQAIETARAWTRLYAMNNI
Format: functional.

The target of assay [21] is Major prion protein (Homo sapiens, UniProt P04156). It counts as functional, cell-based.
Assay [22] in a line: cells.
Assay [23] deals with T5, Short transient receptor potential channel 4 (Mus musculus, UniProt Q9QUQ5).
T5 sequence (Q9QUQ5 whole entry): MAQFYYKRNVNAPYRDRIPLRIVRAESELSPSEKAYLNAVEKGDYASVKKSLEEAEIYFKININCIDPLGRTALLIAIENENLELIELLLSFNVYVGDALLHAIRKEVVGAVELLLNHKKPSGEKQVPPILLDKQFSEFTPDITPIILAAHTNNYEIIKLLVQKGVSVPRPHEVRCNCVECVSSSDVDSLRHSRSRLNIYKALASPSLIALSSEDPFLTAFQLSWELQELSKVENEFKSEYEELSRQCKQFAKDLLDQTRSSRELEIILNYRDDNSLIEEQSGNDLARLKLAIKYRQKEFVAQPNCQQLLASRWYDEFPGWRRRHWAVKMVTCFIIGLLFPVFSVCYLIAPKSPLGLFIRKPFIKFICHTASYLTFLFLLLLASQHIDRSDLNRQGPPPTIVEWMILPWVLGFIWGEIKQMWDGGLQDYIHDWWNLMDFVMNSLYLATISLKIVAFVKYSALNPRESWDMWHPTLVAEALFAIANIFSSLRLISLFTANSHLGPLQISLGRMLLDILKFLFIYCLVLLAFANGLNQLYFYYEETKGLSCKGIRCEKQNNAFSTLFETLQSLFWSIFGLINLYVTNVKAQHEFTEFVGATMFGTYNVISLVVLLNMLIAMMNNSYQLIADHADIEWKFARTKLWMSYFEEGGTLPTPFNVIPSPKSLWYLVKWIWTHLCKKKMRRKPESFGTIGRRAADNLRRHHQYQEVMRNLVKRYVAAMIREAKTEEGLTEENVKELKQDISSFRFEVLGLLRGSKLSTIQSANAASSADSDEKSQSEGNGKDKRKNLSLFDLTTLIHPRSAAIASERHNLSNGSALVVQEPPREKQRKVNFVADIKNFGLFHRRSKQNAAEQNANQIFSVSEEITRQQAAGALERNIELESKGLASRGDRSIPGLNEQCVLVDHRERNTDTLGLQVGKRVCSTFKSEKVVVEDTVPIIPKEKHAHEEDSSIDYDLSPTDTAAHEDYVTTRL
Put plainly: mouse TRPC4 channel activators, dose response, cell-based, HEK293 TRPC4/mu-opioid, Fluo-4 calcium (AID 434937). It counts as functional.

Assay [24] addresses T6, Rac GTPase-activating protein 1 (Homo sapiens, UniProt Q9H0H5).
T6 sequence (Q9H0H5 whole entry): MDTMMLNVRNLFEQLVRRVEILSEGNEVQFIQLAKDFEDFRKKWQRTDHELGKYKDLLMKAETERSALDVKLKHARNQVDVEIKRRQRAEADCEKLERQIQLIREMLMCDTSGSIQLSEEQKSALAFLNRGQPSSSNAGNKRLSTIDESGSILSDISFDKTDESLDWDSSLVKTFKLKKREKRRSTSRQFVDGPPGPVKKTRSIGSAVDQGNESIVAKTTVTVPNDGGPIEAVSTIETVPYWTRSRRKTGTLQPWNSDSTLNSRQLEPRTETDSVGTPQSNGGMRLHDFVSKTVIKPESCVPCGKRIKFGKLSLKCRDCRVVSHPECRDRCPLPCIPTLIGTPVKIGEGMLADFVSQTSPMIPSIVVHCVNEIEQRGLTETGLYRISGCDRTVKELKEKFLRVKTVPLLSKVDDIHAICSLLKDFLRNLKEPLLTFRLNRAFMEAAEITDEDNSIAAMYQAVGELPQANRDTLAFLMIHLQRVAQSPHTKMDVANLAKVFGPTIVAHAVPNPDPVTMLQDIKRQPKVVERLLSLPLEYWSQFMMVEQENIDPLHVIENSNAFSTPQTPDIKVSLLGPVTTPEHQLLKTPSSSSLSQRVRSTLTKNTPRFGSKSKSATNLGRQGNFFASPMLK
Put plainly: MgcRacGAP GTPase-activating activity inhibitors, confirmation, biochemical, ADP Hunter fluorescence, primary and confirmatory (AID 624330). It counts as functional.

A short description of assay [25]: HEp-2 cell cytotoxicity, dose response, cytotoxicity control for RSV inhibitor project, HTS (AID 2410). Format: functional. As to conditions: human respiratory syncytial virus.
For assay [26], the target named is T7, Carboxy-terminal domain RNA polymerase II polypeptide A small phosphatase 1 (Homo sapiens, UniProt Q9GZU7).
T7 sequence (Q9GZU7 whole entry): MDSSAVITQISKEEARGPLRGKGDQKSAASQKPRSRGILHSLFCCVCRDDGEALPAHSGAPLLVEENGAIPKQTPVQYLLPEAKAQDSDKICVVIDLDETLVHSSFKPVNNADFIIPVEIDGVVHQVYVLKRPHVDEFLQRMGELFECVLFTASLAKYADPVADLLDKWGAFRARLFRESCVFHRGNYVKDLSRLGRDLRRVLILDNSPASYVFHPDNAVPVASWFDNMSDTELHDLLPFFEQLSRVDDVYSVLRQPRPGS
Description: inhibitors of CTDSP1, concentration-response testing, biochemical assay, absorbance-based, actives from ultra-high-throughput screening (AID 540297). It counts as functional.

Active and inactive are the calls of the source. Bounds are passed on as bounds.

Sequence of DNA dC->dU-editing enzyme APOBEC-3G (Q9HC16 whole entry): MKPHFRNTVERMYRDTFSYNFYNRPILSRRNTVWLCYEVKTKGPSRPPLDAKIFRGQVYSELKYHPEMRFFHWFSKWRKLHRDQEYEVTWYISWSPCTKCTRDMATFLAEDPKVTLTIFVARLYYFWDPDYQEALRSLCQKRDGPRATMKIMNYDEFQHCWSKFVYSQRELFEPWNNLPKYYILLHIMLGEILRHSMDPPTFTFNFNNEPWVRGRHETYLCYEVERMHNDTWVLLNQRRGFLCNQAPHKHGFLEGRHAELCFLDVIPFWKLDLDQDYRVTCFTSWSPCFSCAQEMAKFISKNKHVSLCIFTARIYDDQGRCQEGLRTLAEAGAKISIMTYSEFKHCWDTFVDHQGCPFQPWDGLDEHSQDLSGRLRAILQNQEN
Sequence of DNA dC->dU-editing enzyme APOBEC-3A (P31941 whole entry): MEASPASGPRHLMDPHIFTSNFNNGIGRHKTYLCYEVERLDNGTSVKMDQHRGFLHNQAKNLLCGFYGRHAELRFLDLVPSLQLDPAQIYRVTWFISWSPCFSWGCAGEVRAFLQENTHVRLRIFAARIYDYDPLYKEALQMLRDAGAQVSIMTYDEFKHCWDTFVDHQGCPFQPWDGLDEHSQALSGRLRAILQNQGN
Sequence of Peroxisome proliferator-activated receptor gamma/Nuclear receptor coactivator 2 (P37231 whole entry): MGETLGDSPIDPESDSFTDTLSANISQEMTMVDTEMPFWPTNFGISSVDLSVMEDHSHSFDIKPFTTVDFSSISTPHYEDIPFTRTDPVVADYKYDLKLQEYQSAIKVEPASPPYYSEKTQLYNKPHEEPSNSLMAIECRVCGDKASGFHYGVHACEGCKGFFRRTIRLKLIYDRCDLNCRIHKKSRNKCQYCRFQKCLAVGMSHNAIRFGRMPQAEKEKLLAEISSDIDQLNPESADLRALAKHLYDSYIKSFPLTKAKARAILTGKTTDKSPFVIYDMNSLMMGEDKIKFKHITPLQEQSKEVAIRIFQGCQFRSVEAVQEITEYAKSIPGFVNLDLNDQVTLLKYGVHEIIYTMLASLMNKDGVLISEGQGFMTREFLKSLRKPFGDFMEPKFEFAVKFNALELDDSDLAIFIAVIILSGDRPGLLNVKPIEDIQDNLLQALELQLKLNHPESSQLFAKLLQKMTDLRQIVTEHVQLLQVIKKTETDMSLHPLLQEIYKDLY
Sequence of Peroxisome proliferator-activated receptor gamma/Nuclear receptor coactivator 2 (Q15596 whole entry, further chain): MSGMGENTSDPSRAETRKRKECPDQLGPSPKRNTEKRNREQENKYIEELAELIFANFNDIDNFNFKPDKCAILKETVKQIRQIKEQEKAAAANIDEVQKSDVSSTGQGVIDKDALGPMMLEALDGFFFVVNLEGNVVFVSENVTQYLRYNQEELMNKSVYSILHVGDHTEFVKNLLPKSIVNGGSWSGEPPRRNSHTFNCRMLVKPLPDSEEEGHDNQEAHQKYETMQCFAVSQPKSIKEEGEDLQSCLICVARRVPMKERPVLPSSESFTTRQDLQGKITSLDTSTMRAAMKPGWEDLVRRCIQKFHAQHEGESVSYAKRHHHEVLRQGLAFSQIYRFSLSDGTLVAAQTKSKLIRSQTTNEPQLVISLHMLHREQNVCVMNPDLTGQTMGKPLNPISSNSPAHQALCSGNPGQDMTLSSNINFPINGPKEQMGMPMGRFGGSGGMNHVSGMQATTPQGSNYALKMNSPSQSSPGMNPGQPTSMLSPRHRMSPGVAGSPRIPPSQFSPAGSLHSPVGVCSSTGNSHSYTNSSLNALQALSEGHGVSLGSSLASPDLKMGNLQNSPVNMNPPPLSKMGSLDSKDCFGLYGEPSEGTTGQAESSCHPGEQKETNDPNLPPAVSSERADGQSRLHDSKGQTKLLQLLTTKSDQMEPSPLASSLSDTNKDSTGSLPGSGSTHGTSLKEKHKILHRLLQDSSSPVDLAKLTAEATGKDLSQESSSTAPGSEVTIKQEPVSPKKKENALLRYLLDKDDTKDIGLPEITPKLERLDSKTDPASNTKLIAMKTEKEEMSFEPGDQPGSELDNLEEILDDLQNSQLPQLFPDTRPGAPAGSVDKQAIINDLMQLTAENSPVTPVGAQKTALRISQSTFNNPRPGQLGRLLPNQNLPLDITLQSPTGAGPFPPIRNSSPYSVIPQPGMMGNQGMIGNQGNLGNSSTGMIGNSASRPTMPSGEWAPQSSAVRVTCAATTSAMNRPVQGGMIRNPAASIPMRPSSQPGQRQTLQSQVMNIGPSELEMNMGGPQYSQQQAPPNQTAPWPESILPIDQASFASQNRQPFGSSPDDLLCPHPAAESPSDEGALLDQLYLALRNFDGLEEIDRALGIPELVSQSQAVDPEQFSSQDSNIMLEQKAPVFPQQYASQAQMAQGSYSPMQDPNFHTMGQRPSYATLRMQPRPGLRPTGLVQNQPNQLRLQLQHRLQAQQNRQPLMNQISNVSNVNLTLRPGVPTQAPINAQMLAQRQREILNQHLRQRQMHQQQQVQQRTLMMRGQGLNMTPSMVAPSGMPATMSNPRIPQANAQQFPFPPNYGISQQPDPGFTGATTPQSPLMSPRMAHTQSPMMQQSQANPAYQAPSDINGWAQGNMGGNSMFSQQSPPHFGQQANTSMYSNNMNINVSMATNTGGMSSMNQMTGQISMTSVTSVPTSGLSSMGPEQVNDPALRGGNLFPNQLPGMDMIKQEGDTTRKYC
Sequence of Peroxisome proliferator-activated receptor gamma/Nuclear receptor coactivator 1 (P37231 whole entry): as the sequence (P37231 whole entry) above
Sequence of Peroxisome proliferator-activated receptor gamma/Nuclear receptor coactivator 1 (Q15788 whole entry, further chain): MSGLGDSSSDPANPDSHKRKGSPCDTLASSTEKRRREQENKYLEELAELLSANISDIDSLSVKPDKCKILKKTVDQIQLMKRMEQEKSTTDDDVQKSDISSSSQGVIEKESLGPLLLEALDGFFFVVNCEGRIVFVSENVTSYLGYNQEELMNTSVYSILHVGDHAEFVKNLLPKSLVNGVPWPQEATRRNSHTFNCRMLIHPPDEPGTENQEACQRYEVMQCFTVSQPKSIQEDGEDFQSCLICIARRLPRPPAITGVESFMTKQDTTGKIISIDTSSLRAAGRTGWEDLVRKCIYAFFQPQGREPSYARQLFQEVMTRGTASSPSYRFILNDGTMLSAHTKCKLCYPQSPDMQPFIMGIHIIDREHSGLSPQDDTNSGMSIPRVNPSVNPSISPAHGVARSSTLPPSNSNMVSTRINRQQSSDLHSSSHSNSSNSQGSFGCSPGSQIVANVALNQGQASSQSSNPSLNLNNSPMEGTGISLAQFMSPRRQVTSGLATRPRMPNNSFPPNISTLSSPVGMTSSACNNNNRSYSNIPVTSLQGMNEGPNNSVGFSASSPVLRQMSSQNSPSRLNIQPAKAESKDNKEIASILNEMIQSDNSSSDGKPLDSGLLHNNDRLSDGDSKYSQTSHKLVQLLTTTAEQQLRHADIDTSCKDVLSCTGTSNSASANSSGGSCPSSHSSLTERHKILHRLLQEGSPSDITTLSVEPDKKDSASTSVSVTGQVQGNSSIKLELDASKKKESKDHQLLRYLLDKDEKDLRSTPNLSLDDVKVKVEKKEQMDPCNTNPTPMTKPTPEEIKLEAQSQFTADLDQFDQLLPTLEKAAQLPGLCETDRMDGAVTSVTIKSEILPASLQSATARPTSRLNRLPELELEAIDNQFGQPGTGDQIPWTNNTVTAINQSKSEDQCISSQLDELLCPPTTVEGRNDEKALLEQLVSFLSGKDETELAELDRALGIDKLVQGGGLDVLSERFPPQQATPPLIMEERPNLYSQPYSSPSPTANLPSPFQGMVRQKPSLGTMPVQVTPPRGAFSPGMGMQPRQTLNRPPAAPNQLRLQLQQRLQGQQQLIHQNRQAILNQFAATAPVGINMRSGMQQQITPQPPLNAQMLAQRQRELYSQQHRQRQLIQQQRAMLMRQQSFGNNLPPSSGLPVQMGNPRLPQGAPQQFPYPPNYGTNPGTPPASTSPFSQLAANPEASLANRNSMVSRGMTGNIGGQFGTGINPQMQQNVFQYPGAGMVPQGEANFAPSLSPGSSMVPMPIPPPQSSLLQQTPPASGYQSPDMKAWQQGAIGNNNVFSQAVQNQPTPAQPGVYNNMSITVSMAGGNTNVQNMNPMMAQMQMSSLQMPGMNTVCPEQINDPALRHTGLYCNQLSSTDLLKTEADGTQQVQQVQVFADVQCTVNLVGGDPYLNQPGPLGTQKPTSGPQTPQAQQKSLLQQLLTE
T3 sequence (P41145 whole entry): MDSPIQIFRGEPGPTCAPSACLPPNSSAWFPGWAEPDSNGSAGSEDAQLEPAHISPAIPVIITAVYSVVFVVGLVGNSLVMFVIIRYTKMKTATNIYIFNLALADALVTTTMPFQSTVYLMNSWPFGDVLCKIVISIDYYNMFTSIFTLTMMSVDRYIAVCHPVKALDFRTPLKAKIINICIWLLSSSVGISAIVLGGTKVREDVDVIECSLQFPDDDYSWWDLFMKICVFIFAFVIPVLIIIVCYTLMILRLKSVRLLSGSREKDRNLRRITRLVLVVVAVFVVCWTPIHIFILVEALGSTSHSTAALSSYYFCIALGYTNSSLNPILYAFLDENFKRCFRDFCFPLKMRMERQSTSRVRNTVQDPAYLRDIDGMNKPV

As to `CCOc1ccc(C(C)C)cc1S(=O)(=O)Nc1cccnc1`, the results for the IC50 in assay [1] and in assay [2] were > 100 µM (not active) and 3.52 µM (active), respectively.
With `Fc1ccc(COc2cccc(-c3nnc(S)o3)c2)cc1`, the values for the EC50 in assay [3], in [4] and in assay [5] were 9.44 µM (active), > 79.4 µM (not active) and 8.05 µM (active), respectively.
As to `O=S(=O)(c1ccc(=S)[nH]c1)N1CCOCC1`, the IC50 in [6] is > 100 µM (inactive); in assay [7] it was 12.6 µM (active); in [8], > 66 µM (inactive); in assay [9], > 66 µM (inactive).
With `O=C(NNC(=O)C(c1ccccc1)c1ccccc1)c1ccccn1`, the IC50 in assay [10] is 17.5 µM (active); in assay [12], above 32 µM; in assay [13] it was > 79 µM (inactive). In addition, the EC50 in assay [11] is > 31.5 µM (inactive). Further, the AC50 in assay [14] is 2.87 µM (active); in assay [15], 5.11 µM (active); in [16], 2.52 µM (active); in [17], 3.53 µM (active); in [18] it was 0.585 µM (active).
Turning to `CCOC(=O)C1CCCN(C(=O)c2cc(-c3ccco3)nc3ccccc23)C1` (configuration not stated), the IC50 in assay [19] is 6.42 µM (active).
`O=C(Cc1cccs1)NCCSc1c(-c2ccc(Cl)cc2)[nH]c2ccccc12`: the EC50 in [3] is 12.3 µM (inactive); in assay [4], > 2.94 µM (active); in [5] it was 15.6 µM (not active).
Turning to `Sc1[nH]cnc2c3ccccc3nc1-2`, the IC50 in assay [6] is > 100 µM (inactive); in assay [20] it was > 20 µM (inactive); in assay [7], 3.65 µM (active); in [21], 1.5 µM (active); in assay [22], > 138 µM (inactive).
Turning to `CC(C)c1ccc(NC(=S)N(C)CCc2ccccn2)cc1`, the EC50 in assay [23] was 5.96 µM (active).
In the case of `Fc1ccc(C(c2nnnn2Cc2cccs2)N2CCN(C3CCCCC3)CC2)cc1` (configuration not stated), in [23], the EC50 was 1.19 µM (active).
As to `CCCCN(CC)CCNC(=O)c1cc2c(C)nc3ccccc3c2o1`, the EC50 in assay [23] was 0.944 µM (active).
As for `c1cncc(-c2nnn[nH]2)c1`, the results for the IC50 in [1] and in [2] were > 100 µM (not active) and > 100 µM (inactive), respectively.
Take `Cc1cc(-c2nnc(S)n2/N=C/c2cccc(O)c2)[nH]n1`: the IC50 in assay [6] is > 100 µM (inactive); in [7], 2.51 µM (active); in assay [24], 157 µM (active).
On to `Cc1nn(-c2ccccc2)c(C)c1/C=N/n1c(S)nnc1-c1ccncc1`, for which the CC50 in assay [25] was > 50 µM (active). Besides, the IC50 was > 100 µM (inactive) in [6] and 2.75 µM (active) in [7].
For the compound `COC(=O)c1sccc1-c1ccc(/C=N/OC(=O)c2ccccc2)o1`, the EC50 in assay [3] is 12.2 µM (inactive); in assay [4], > 79.4 µM (not active); in [5], 12.7 µM (not active).
In the case of `COc1ccc(/C(C)=N/NC(=O)CNC(=O)/C=C\c2ccco2)cc1`, in assay [26], the IC50 was 6.67 µM (active).
